Laboratory results as given in ChEMBL document CHEMBL1131676, “The discovery of orally available thrombin inhibitors: optimisation of the P1 pharmacophore” (Bioorg Med Chem Lett, 1999).

System: not listed separately
Test: Effect on doubling of human clotting time assay expressed as Activated partial thromboplastin time value (APTT)
Assay type: functional

First: O=C([C@H](Cc1cscn1)NS(=O)(=O)c1cnccc1N[C@H](CO)Cc1ccccc1)N1CCC(CCF)CC1
Second: O=C([C@H](Cc1ccccn1)NS(=O)(=O)c1cnccc1N[C@H](CO)Cc1ccccc1)N1CCC(CCF)CC1
The APTT of the first is 2.4-fold higher: 9.17 µM for the first, 3.87 µM for the second.

Going from `O=C([C@H](Cc1ccccc1)NS(=O)(=O)c1cnccc1N[C@H](CO)Cc1ccccc1)N1CCC(CCF)CC1` to `O=C([C@H](Cc1cccnc1)NS(=O)(=O)c1cnccc1N[C@H](CO)Cc1ccccc1)N1CCC(CCF)CC1`, the APTT rises from 11 µM to 20.33 µM (1.8-fold).

Going from `O=C([C@H](Cc1ccc(O)cc1)NS(=O)(=O)c1cnccc1N[C@H](CO)Cc1ccccc1)N1CCC(CCF)CC1` to `COc1ccc(C[C@H](NS(=O)(=O)c2cnccc2N[C@H](CO)Cc2ccccc2)C(=O)N2CCC(CCF)CC2)cc1`, the APTT rises from 1.91 µM to 8.013 µM (4.2-fold).

Going from `CCNc1ccc(C[C@H](NS(=O)(=O)c2cnccc2N[C@H](CO)Cc2ccccc2)C(=O)N2CCC(CCF)CC2)cc1` to `CNc1ccc([C@H](NS(=O)(=O)c2cnccc2N[C@H](CO)Cc2ccccc2)C(=O)N2CCC(CCF)CC2)cc1`, the APTT falls from 17.4 µM to 4.08 µM (4.3-fold).

Compared with `O=C([C@H](Cc1ccc2ccccc2c1)NS(=O)(=O)c1cnccc1N[C@H](CO)Cc1ccccc1)N1CCC(CCF)CC1`, `Nc1cc(C[C@H](NS(=O)(=O)c2cnccc2N[C@H](CO)Cc2ccccc2)C(=O)N2CCC(CCF)CC2)ccc1O` is 17-fold lower in APTT: 26 µM for the first, 1.53 µM for the second.

`O=C([C@H](Cc1ccc(O)c(O)c1)NS(=O)(=O)c1cnccc1N[C@H](CO)Cc1ccccc1)N1CCC(CCF)CC1` and `O=C([C@H](Cc1ccc2c(c1)OCO2)NS(=O)(=O)c1cnccc1N[C@H](CO)Cc1ccccc1)N1CCC(CCF)CC1` are within 1.5-fold of each other in APTT: 6.17 µM for the first, 6.39 µM for the second.

In the case of `N=C(N)NCC[C@H](NS(=O)(=O)c1cnccc1N[C@H](CO)Cc1ccccc1)C(=O)N1CCC(CCF)CC1`, the APTT is reported as 0.75 µM.

Target: Prothrombin (Homo sapiens, UniProt P00734)
Test: Binding affinity to human thrombin

Compared with `O=C([C@H](Cc1cscn1)NS(=O)(=O)c1cnccc1N[C@H](CO)Cc1ccccc1)N1CCC(CCF)CC1`, `O=C([C@H](Cc1ccccn1)NS(=O)(=O)c1cnccc1N[C@H](CO)Cc1ccccc1)N1CCC(CCF)CC1` is 3.5-fold lower in Ki: 280 nM for the first, 81 nM for the second. The second binds more tightly here.

Going from `O=C([C@H](Cc1ccccc1)NS(=O)(=O)c1cnccc1N[C@H](CO)Cc1ccccc1)N1CCC(CCF)CC1` to `O=C([C@H](Cc1cccnc1)NS(=O)(=O)c1cnccc1N[C@H](CO)Cc1ccccc1)N1CCC(CCF)CC1`, the Ki rises from 100 nM to 1610 nM (16-fold).

`O=C([C@H](Cc1ccc(O)cc1)NS(=O)(=O)c1cnccc1N[C@H](CO)Cc1ccccc1)N1CCC(CCF)CC1` and `COc1ccc(C[C@H](NS(=O)(=O)c2cnccc2N[C@H](CO)Cc2ccccc2)C(=O)N2CCC(CCF)CC2)cc1` are within 1.5-fold of each other in Ki: 41 nM for the first, 36 nM for the second.

Going from `CCNc1ccc(C[C@H](NS(=O)(=O)c2cnccc2N[C@H](CO)Cc2ccccc2)C(=O)N2CCC(CCF)CC2)cc1` to `CNc1ccc([C@H](NS(=O)(=O)c2cnccc2N[C@H](CO)Cc2ccccc2)C(=O)N2CCC(CCF)CC2)cc1`, the Ki falls from 575 nM to 12 nM (48-fold). The second binds more tightly here.

Compared with `O=C([C@H](Cc1ccc2ccccc2c1)NS(=O)(=O)c1cnccc1N[C@H](CO)Cc1ccccc1)N1CCC(CCF)CC1`, `Nc1cc(C[C@H](NS(=O)(=O)c2cnccc2N[C@H](CO)Cc2ccccc2)C(=O)N2CCC(CCF)CC2)ccc1O` is 2.7-fold lower in Ki: 69 nM for the first, 26 nM for the second. The second binds more tightly here.

Going from `O=C([C@H](Cc1ccc(O)c(O)c1)NS(=O)(=O)c1cnccc1N[C@H](CO)Cc1ccccc1)N1CCC(CCF)CC1` to `O=C([C@H](Cc1ccc2c(c1)OCO2)NS(=O)(=O)c1cnccc1N[C@H](CO)Cc1ccccc1)N1CCC(CCF)CC1`, the Ki falls from 82 nM to 43 nM (1.9-fold). The second binds more tightly here.

Compared with `CC(C)C[C@H](NS(=O)(=O)c1cnccc1N[C@H](CO)Cc1ccccc1)C(=O)N1CCC(CCF)CC1`, `CC(C)[C@H](NS(=O)(=O)c1cnccc1N[C@H](CO)Cc1ccccc1)C(=O)N1CCC(CCF)CC1` is 1.8-fold lower in Ki: 11900 nM for the first, 6510 nM for the second.

Going from `N=C(N)NCC[C@H](NS(=O)(=O)c1cnccc1N[C@H](CO)Cc1ccccc1)C(=O)N1CCC(CCF)CC1` to `NCCCC[C@H](NS(=O)(=O)c1cnccc1N[C@H](CO)Cc1ccccc1)C(=O)N1CCC(CCF)CC1`, the Ki rises from 16 nM to 1800 nM (110-fold). The first binds more tightly here.

First: C[C@H](NS(=O)(=O)c1cnccc1N[C@H](CO)Cc1ccccc1)C(=O)N1CCC(CCF)CC1
Second: O=C([C@@H](NS(=O)(=O)c1cnccc1N[C@H](CO)Cc1ccccc1)c1ccncc1)N1CCC(CCF)CC1
The Ki of the first is 32-fold higher: 49900 nM for the first, 1540 nM for the second. The second binds more tightly here.

`O=C([C@@H](NS(=O)(=O)c1cnccc1N[C@H](CO)Cc1ccccc1)C1CCCCC1)N1CCC(CCF)CC1` gave a Ki of 11800 nM.
